How the values were obtained:
Test in all cases: biochemical
Design in all cases: DiscoverX kinase panel, active-site competition binding (KINOMEscan type), percent of control at one concentration
Settings in all cases: competition binding, percent of control
[1] = molecular target: MYLK (Homo sapiens, UniProt Q15746)
[2] = molecular target: CHEK2 (Homo sapiens, UniProt O96017)
[3] = molecular target: NLK (Homo sapiens, UniProt Q9UBE8)
[4] = molecular target: CDKL5 (Homo sapiens, UniProt O76039)
[5] = molecular target: T1, ERK5 (Homo sapiens, UniProt Q13164)
T1 construct: gene MAPK7

[6] = molecular target: LYN (Homo sapiens, UniProt P07948)
[7] = molecular target: T2, PIK4CB (Homo sapiens, UniProt Q9UBF8)
T2 construct: gene PI4KB

[8] = molecular target: DYRK2 (Homo sapiens, UniProt Q92630)
[9] = molecular target: PIK3CD (Homo sapiens, UniProt O00329)
[10] = molecular target: MET(M1250T) (Homo sapiens, UniProt P08581, M1250T)
[11] = molecular target: RET(V804M) (Homo sapiens, UniProt P07949, V804M)
[12] = molecular target: T3, ERK3 (Homo sapiens, UniProt Q16659)
T3 construct: gene MAPK6

[13] = molecular target: PRKCE (Homo sapiens, UniProt Q02156)
[14] = molecular target: AURKB (Homo sapiens, UniProt Q96GD4)
[15] = molecular target: T4, JNK2 (Homo sapiens, UniProt P45984)
T4 construct: gene MAPK9

[16] = molecular target: DDR1 (Homo sapiens, UniProt Q08345)
[17] = molecular target: T5, JNK3 (Homo sapiens, UniProt P53779)
T5 construct: gene MAPK10

[18] = molecular target: KIT(L576P) (Homo sapiens, UniProt P10721, L576P)
[19] = molecular target: BLK (Homo sapiens, UniProt P51451)
[20] = molecular target: T6, SgK110 (Homo sapiens, UniProt P0C264)
T6 construct: gene SBK3

[21] = molecular target: T7, OSR1 (Homo sapiens, UniProt O95747)
T7 construct: gene OXSR1

T4 sequence (P45984 whole entry): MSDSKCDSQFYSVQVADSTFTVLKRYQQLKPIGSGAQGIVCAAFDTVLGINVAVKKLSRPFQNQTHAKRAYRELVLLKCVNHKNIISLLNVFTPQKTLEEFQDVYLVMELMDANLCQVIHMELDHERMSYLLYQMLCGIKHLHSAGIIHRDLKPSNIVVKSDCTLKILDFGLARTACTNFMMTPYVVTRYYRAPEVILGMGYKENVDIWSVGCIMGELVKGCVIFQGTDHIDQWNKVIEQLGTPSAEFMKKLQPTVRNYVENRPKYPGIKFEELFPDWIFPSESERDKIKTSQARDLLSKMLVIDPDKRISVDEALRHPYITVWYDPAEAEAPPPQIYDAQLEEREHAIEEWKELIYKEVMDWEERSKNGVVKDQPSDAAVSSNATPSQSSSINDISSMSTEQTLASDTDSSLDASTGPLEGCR
RET(V804M), sequence (P07949 whole entry V804M): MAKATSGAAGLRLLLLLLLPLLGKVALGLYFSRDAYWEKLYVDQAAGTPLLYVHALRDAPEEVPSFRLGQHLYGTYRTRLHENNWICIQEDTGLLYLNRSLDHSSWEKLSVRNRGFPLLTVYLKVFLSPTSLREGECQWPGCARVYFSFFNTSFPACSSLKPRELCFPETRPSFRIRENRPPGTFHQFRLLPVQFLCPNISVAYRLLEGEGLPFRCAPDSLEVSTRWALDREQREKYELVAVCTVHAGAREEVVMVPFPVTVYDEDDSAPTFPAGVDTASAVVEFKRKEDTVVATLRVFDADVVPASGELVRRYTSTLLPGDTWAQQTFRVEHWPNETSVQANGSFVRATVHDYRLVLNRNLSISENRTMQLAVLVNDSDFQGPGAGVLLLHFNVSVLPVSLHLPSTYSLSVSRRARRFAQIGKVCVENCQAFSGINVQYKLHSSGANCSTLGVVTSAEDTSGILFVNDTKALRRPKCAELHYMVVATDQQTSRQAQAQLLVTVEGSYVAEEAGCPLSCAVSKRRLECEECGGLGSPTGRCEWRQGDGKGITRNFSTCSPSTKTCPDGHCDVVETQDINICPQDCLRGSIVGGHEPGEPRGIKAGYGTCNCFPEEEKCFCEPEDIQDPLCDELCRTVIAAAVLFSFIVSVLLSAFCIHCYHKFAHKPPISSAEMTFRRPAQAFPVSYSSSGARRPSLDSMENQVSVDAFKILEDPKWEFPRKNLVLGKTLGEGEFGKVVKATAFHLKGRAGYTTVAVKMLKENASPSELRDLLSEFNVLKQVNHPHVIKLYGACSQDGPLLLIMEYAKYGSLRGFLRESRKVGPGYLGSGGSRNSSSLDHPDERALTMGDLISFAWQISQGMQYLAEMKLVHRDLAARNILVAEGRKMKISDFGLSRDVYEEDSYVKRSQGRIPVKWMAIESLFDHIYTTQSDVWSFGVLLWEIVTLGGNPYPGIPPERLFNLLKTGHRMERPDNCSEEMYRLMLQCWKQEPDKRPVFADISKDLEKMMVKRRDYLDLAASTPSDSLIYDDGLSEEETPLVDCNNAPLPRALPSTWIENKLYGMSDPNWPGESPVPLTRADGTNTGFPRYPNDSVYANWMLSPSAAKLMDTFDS
NLK, sequence (Q9UBE8 whole entry): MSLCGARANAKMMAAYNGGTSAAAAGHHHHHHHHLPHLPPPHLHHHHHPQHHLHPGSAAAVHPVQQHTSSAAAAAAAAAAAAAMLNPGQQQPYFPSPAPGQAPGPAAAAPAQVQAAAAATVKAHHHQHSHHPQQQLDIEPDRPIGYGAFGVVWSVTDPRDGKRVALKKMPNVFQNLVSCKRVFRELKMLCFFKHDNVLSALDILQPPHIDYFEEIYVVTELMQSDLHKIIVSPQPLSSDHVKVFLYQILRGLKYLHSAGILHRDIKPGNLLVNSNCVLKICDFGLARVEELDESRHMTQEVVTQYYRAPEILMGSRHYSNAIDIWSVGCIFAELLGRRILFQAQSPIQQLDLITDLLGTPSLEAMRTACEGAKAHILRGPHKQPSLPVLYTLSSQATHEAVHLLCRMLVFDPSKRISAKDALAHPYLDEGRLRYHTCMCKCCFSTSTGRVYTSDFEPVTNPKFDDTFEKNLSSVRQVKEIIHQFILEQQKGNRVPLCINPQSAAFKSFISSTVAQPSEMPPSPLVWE
DDR1, sequence (Q08345 whole entry): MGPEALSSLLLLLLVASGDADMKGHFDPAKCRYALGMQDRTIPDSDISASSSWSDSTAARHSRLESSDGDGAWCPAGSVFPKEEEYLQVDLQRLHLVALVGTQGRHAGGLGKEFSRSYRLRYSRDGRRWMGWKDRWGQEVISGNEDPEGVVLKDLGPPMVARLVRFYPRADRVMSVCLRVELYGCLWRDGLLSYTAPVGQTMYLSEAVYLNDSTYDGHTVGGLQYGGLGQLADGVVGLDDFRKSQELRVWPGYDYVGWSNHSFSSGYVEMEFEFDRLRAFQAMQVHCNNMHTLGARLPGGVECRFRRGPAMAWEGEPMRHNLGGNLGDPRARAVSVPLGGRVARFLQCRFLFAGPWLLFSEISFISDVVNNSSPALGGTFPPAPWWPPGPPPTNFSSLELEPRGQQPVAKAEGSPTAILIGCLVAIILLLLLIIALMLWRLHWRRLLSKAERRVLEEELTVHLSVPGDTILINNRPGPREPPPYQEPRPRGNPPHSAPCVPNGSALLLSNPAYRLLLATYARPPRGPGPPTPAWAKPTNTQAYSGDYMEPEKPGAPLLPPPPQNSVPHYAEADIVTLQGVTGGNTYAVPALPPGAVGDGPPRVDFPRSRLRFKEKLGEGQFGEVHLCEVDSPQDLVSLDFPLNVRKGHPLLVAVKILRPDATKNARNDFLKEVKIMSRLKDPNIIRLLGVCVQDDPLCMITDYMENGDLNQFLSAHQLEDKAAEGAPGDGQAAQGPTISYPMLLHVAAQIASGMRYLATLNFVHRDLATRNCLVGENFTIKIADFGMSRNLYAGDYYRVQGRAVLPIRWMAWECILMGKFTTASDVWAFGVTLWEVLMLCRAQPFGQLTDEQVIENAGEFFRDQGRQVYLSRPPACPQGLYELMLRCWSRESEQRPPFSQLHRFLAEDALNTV
DYRK2, sequence (Q92630 whole entry): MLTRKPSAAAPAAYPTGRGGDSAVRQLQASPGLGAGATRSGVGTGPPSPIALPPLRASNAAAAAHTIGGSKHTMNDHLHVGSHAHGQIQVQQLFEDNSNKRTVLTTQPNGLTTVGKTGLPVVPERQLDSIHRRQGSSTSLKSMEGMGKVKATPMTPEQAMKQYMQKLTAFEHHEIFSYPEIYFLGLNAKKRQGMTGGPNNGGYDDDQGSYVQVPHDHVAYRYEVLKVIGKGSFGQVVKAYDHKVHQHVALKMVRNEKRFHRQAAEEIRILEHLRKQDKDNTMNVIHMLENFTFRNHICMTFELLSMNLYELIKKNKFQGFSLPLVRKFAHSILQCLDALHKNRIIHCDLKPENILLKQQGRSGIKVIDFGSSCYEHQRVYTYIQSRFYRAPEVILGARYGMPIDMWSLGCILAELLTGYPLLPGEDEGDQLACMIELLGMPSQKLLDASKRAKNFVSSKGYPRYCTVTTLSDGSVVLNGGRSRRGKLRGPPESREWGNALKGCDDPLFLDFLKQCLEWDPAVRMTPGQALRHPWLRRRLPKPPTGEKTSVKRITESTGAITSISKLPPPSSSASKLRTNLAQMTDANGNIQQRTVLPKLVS
MET(M1250T), sequence (P08581 whole entry M1250T): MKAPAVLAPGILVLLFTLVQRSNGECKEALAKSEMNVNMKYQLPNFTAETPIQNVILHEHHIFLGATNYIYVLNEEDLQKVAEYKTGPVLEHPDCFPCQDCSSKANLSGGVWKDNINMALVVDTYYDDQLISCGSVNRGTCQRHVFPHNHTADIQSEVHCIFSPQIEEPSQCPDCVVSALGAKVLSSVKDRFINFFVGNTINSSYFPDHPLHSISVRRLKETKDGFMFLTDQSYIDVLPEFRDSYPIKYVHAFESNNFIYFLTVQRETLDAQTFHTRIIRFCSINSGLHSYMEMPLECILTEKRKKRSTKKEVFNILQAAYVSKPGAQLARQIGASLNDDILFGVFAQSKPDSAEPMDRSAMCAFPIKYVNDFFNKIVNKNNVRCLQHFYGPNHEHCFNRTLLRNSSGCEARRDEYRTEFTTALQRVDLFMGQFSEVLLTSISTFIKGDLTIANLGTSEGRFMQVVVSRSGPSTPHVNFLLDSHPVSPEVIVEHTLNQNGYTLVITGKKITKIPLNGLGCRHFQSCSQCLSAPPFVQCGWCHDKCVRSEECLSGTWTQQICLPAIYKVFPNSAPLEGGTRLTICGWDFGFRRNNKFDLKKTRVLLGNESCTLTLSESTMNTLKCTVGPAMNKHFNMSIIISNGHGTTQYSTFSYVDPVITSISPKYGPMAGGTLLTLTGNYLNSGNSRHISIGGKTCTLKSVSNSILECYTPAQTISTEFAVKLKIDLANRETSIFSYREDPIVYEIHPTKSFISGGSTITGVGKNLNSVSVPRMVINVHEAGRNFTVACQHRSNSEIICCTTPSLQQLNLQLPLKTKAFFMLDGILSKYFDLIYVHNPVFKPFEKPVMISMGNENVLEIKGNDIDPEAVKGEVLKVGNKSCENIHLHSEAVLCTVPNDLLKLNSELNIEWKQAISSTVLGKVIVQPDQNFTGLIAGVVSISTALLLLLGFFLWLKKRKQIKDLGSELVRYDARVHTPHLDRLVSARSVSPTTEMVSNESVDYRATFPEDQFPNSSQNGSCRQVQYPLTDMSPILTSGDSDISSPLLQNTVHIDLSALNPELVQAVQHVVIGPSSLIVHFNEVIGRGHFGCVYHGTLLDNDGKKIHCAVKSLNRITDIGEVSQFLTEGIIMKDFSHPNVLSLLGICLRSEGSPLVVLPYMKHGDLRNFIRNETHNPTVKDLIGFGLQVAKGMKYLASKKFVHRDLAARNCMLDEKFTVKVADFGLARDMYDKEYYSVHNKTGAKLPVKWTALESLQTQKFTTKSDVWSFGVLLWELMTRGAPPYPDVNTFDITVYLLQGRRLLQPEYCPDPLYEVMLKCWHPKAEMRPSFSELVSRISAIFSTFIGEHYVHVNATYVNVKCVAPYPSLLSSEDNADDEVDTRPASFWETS

**Q.** Which remaining binding at 10 µM [1] does the source give for `COc1cc2c(cn1)N(C)C(=O)[C@@H](NC(=O)c1nc3n(n1)[C@H](c1ccccc1)CC3)CC2` [GNE684, (S)-N-((S)-7-methoxy-1-methyl-2-oxo-2,3,4,5-tetrahydro-1H-pyrido[3,4-b]azepin-3-yl)-5-phenyl-6,7-dihydro-5H-pyrrolo[1,2-b][1,2,4]triazole-2-carboxamide] here?
**A.** 99%

**Q.** And the remaining binding at 10 µM [2]?
**A.** 100%

**Q.** What about the remaining binding at 10 µM [3] of the same compound?
**A.** 94%

**Q.** And the remaining binding at 10 µM [4]?
**A.** 79%

**Q.** What about the remaining binding at 10 µM [5] of the same compound?
**A.** 85%

**Q.** And the remaining binding at 10 µM [6]?
**A.** 94%

**Q.** What about the remaining binding at 10 µM [7] of the same compound?
**A.** 98%

**Q.** What about the remaining binding at 10 µM [8] of the same compound?
**A.** 87%

**Q.** And the remaining binding at 10 µM [9]?
**A.** 78%

**Q.** And the remaining binding at 10 µM [10]?
**A.** 100%

**Q.** And the remaining binding at 10 µM [11]?
**A.** 100%

**Q.** What about the remaining binding at 10 µM [12] of the same compound?
**A.** 100%

**Q.** And the remaining binding at 10 µM [13]?
**A.** 88%

**Q.** What about the remaining binding at 10 µM [14] of the same compound?
**A.** 84%

**Q.** And the remaining binding at 10 µM [15]?
**A.** 98%

**Q.** What about the remaining binding at 10 µM [16] of the same compound?
**A.** 100%

**Q.** And the remaining binding at 10 µM [17]?
**A.** 98%

**Q.** What about the remaining binding at 10 µM [18] of the same compound?
**A.** 100%

**Q.** What about the remaining binding at 10 µM [19] of the same compound?
**A.** 49%

**Q.** And the remaining binding at 10 µM [20]?
**A.** 67%

**Q.** And the remaining binding at 10 µM [21]?
**A.** 93%
